Experimental data reported in patent publication US9771560B2, “High-throughput image-based chemical screening in zebrafish blastomere cell culture” (CHILDREN'S MEDICAL CENTER CORPORATION, priority 2012, dated 2017).
Several values for one entry are separate records, joined by “and”; a condition that tells them apart may be missing. Equal entries are not always repeated.

How the values were obtained:
[1] = test system: satellite cells from C57BL/6J mice; experiment: In vitro expansion of mouse satellite cells (cell count); assay type: cell-based; details: 5 days in culture
Description: (§1) SMP isolation was performed as previously described (Cerletti et al., 2008; Sherwood et al., 2004). Briefly, MFA cells were prepared from intact skeletal muscles (EDL, gastrocnemius, quadriceps, soleus, TA, triceps brachii, abdominal) by digesting the muscles with collagenase type II and then dispase enzymes. MFA cells were stained for isolation of CD45^−Sca-1^−Mac-1^−CXCR4^+ b1-integrin^+ cell population by FACS. For in vitro expansion experiments, SMPs were seeded on collagen/laminin-coated plates in F10 (Gibco) containing 20% horse serum (Atlanta Biologics), 1% penicillin-streptomycin (Invitrogen) and 1% glutamax (Invitrogen). […] Cells were counted or used for transplantation after 5 days in culture. For Myogenic colony formation assay cells were fixed and counted after 6 days in culture. […]
(§2) Cultured SMPs were fixed in 4% paraformaldehyde (PFA) and stained with 10 μg/ml Hoechst (Invitrogen). […] The images were analyzed and numbers of cells were counted by the built-in software. […] The images were analyzed and percentage of nuclei in myotubes was calculated using a modified ImageJ macro developed in-house. […]
(§3) We hypothesized that the chemical hits enhancing skeletal muscle development in zebrafish blastomeres may likewise promote muscle precursor cell formation and/or expansion in other species. […] Cell number in the resulting colonies was determined after 5 days in culture.

[2] = test system: satellite cells from mdx mice; experiment: In vitro expansion of mdx satellite cells (cell count); assay type: cell-based, mouse; details: 5 days in culture
Description: as §1, §2, §3

[3] = test system: cAMP levels in mouse satellite cell cultures; experiment: cAMP-Glo assay in cultured satellite cells; assay type: cell-based
Description: cAMP assay was performed using the cAMP-Glo™ Assay kit (Promega) according to the manufacturer's protocol.
To test forskolin's effect on satellite cell survival and proliferation, single cells were plated at one cell per well in 96-well plates and treated with forskolin or DMSO. After six days in vitro culture, we quantified the number of wells containing any number of myogenic cells (a measure of cell survival) and the number of cells in those wells (a measure of cell proliferation) (FIG. 3D).

cultured satellite cells = experiment: Flow cytometry of CXCR4 and β-1 Integrin on cultured satellite cells; assay type: cell-based, mouse; details: after 5 days in culture, FACS
Description: FIG. 5C, GFP^+ satellite cells were harvested from β-actin GFP mice and were transplanted into TA muscle of recipient mdx mice, injured 1 day previously by injection of cardiotoxin, either right after isolation or after five days in culture with DMSO or forskolin treatment. […] Scale bars represent 200 μm.
Flow cytometry analysis was performed using a BD LSR II, provided through the Harvard Stem Cell Institute Flow Cytometry Core Facility. Flow cytometry data were collected using DIVA (Becton Dickinson (BD), Franklin Lakes, N.J.) software and analyzed offline using Flowjo software (Tree Star, Inc., Macintosh version 8.1.1, Ashland, Oreg.). Antibodies used for flow cytometry included: APC/Cy7 anti-mouse Ter119, clone Ter119 (1:200, Biolegend 116223), APC/Cy7 anti-mouse CD45, clone 30-F11 (1:200, Biolegend 103116), APC/Cy7 anti-mouse CD11b, clone M1/70 (1:200, Biolegend 101226), APC Anti-mouse Ly-6A/E (Sca-1), clone D7 (1:200, Biolegend 108112), Biotin anti-mouse CD184 (CXCR4, Fusin) (1:100, BD Biosciences 551968), Streptavidin PE-Cy7 (1:100, eBioscience 25-4317-82), PE anti-mouse/rat CD29 Antibody (1:100, Biolegend 102208). Live cells were identified by positive staining with calcein blue (1:1000) (Invitrogen, Carlsbad, Calif.) and negative staining for propidium iodide (PI, 1 μg/mL). […]

## C=C[C@@]1(C)CC(=O)[C@]2(O)[C@@]3(C)[C@@H](O)CCC(C)(C)[C@@H]3[C@H](O)[C@H](OC(C)=O)[C@@]2(C)O1 [forskolin]
[1]; absence of bFGF
  total number of cells, fold change compared to DMSO treated cells: ~2 folds
[1]; presence of bFGF
  total number of cells, fold change compared to DMSO treated cells: ~2.3 folds
[2]
  fold change of number of satellite cells compared to DMSO: ~3.6 folds
[3]; 25 μM forskolin
  concentration of cAMP, fold increase compared to DMSO treated cells: ~4.5 fold
[3]; 50 μM forskolin
  concentration of cAMP, fold increase compared to DMSO treated cells: ~5.2 fold
[3]; 100 μM forskolin
  concentration of cAMP, fold increase compared to DMSO treated cells: ~5.7 fold
Cultured satellite cells
  frequency of cells co-expressing CXCR4 and β-1 Integrin: 78.9%+/−1.52% and ~80%
